BindingDB's records for doi:10.1021/jm900098v (Kosan Biosciences, 2009)

Target: Heat shock protein HSP 90-beta (Homo sapiens, UniProt P08238)
Test: Binding affinity to human recombinant HSP90

Sequence of Heat shock protein HSP 90-beta (P08238 whole entry): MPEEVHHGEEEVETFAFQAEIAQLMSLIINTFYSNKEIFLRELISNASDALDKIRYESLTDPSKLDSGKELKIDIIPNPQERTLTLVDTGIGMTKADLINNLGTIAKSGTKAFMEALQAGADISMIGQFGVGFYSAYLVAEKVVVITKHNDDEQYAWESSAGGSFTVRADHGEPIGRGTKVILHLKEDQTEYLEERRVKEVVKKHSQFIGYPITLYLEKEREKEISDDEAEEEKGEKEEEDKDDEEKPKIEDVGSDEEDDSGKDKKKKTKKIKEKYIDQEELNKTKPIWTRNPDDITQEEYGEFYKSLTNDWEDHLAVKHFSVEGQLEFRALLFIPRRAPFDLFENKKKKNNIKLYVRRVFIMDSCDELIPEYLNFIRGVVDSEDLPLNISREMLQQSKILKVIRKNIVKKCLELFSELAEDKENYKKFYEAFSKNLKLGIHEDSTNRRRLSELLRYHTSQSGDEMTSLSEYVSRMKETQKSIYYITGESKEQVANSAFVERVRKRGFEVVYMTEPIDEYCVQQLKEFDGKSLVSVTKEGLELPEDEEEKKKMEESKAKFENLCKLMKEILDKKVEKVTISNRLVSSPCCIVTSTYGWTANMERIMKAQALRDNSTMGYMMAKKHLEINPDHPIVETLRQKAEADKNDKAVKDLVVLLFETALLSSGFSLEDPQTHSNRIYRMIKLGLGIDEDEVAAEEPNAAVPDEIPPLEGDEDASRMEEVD

Kd [µM] | SMILES
> 100 | CO/N=C1/[C@@H](OC)C[C@H](C)Cc2c(O)c(cc(O)c2N=CCN(C)C)NC(=O)C(C)=CC=C[C@H](OC)[C@@H](OC(N)=O)/C(C)=C/[C@@H]1C [(8S,9S,12S,14S,16R)-19-(2-(dimethylamino)ethylamino)-8,14-dimethoxy-13-(methoxyimino)-4,10,12,16-tetramethyl-3,20,22-trioxo-2-azabicyclo[16.3.1]docosa-1(21),4,6,10,18-pentaen-9-yl carbamate]
> 10 | CO[C@H]1C[C@H](C)Cc2c(O)c(cc(O)c2N=CCN(C)C)NC(=O)C(C)=CC=C[C@H](OC)[C@@H](OC(N)=O)C(C)=C[C@H](C)C1N=O (stereo partly drawn) [(8S,9S,12S,14S,16R)-19-(2-(dimethylamino)ethylamino)-13-(hydroxyimino)-8,14-dimethoxy-4,10,12,16-tetramethyl-3,20,22-trioxo-2-azabicyclo[16.3.1]docosa-1(21),4,6,10,18-pentaen-9-yl carbamate]
0.8 | CO[C@H]1C=CC=C(C)C(=O)Nc2cc(O)c(N=CCF)c(c2O)C[C@@H](C)C[C@H](OC)[C@H](O)[C@@H](C)/C=C(\C)[C@@H]1OC(N)=O [Carbamic acid (4E,6Z,10E)-(8S,9S,12S,13R,14S,16R)-19-(2-fluoro-ethylamino)-13-hydroxy-8,14-dimethoxy-4,10,12,16-tetramethyl-3,20,22-trioxo-2-aza-bicyclo[16.3.1]docosa-1(21),4,6,10,18-pentaen-9-yl ester]
